From patent US20260216101A1, “Selective Serotonin Receptor Modulators and Methods of Making and Using the Same” (Park City Bio, LLC, priority 2024, published 2026)

How the values were obtained:
5-HT2C receptor = target: T1, 5-HT2C receptor (Homo sapiens, UniProt P28335); experiment: 5-HT2 receptor-mediated Gq activation via Gq/γ1 dissociation BRET (5-HT2C); assay type: cell-based; settings: primary 5-HT2C signaling via Gq-coupled mechanism compared to β-arrestin
T1 construct: expressed in transfected cells; host or cells: HEK293T
T1 sequence (P28335 33-458): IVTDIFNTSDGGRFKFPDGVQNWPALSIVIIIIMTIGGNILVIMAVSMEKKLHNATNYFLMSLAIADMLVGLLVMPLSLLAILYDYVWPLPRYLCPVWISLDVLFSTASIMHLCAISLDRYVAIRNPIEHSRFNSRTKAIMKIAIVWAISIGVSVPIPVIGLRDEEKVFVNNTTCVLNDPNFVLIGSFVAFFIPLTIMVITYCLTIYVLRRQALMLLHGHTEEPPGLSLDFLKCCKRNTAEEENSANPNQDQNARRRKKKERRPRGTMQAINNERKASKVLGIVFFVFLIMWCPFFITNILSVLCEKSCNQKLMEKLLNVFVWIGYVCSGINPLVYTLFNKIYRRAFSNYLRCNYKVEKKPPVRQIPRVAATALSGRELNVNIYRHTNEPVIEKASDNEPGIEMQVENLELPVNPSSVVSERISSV
From the text: (§1) To measure 5-HT2 receptor-mediated Gq activation via Gq/y1 dissociation as measured by Bioluminescence Resonance Energy Transfer (BRET) (McCorvy J D, Wacker D, Wang S, Agegnehu B, Liu J, Lansu K, Tribo A R, Olsen R H J, Che T, Jin J, Roth B L. Structural determinants of 5-HT2B receptor activation and biased agonism. Nat Struct Mol Biol. 2018; 25(9): 787-96), HEK293T cells were sub-cultured in Dulbecco's Modified Eagle Medium (DMEM) supplemented with 10% dialyzed fetal bovine serum (FBS) and were co-transfected in a 1:1:1:1 ratio with Rluc8-fused human Gaq (Gaq-Rluc8), a GFP2-fused to the C-terminus of human Gy1(Gy1-GFP2), human G131, and 5-HT2 receptor using TransiT-2020. After at least 18-24 hours, transfected cells were plated in poly-lysine coated 96-well white clear bottom cell culture plates in DMEM containing 1% dialyzed FBS at a density of 25,000-40,000 cells in 200 μL per well and incubated overnight. The following day, medium was decanted, and cells were washed with 60 μL of drug buffer (1×HBSS, 20 mM HEPES, pH 7.4), then 60 μL of drug buffer was added per well. Cells were pre-incubated at in a humidified atmosphere at 37° C. before receiving drug stimulation. […] Substrate addition occurred 15 minutes before reading and utilized 10 μL of the Rluc substrate coelenterazine 400a for Gq dissociation BRET^2 (Prolume/Nanolight, 5 μM final concentration). Plates were read for luminescence at 400 nm and fluorescent GFP2 emission at 510 nm at 1 second per well using a Mithras LB940 multimode microplate reader (e.g. one provided by Berthold). The BRET ratios of fluorescence/luminescence were calculated per well and were plotted as a function of drug concentration using Graphpad Prism 8 (Graphpad Software Inc., San Diego, CA). Data were normalized to % 5-HT stimulation and analyzed using nonlinear regression “log(agonist) vs. response” to yield Emax and EC50 parameter estimates. […]

5-HT2A receptor = target: T2, 5-HT2A receptor (Homo sapiens, UniProt P28223); experiment: 5-HT2 receptor-mediated Gq activation via Gq/γ1 dissociation BRET (5-HT2A); assay type: cell-based; settings: predicted based on the level of 5-HT2A agonist efficacy
T2 construct: expressed in transfected cells; host or cells: HEK293T
T2 sequence (P28223 whole entry): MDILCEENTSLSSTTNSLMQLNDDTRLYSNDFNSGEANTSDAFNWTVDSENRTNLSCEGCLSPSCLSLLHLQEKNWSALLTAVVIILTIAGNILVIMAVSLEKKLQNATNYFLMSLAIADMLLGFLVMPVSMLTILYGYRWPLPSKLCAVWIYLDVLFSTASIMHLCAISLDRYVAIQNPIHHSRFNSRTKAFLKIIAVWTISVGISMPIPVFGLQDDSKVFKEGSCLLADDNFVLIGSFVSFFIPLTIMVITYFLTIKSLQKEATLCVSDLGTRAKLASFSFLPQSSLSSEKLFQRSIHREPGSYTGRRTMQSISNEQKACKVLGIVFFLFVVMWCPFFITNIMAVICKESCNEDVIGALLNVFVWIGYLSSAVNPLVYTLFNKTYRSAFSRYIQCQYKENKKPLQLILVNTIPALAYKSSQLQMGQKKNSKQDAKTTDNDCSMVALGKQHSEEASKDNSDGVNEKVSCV
From the text: as §1

| Structure (SMILES) | 5-HT2C Gq signaling bias? (5-HT2C receptor) | Hall or N-Hall? (hallucinogenic or non-hallucinogenic plastogenic effect) (5-HT2A receptor) |
| --- | --- | --- |
| CNC[C@H]1C[C@@H]1c1cc(F)ccc1OC | Yes | N-Hall |
| CNCC1CC1c1cc(F)ccc1SC (stereo not drawn) | Yes | N-Hall |
| CSc1ccc(F)cc1C1CC1CN(C)C (stereo not drawn) | Yes | N-Hall |
